As a reminder, the solubility is the concentration that dissolves in the medium under given conditions. Low values mean a poorly soluble substance, high ones a readily soluble substance.

Three compounds from patent US20240279298A1 (BEIJING TUO JIE BIOPHARMACEUTICAL CO. LTD., priority 2021, published 2024) can be followed below.

Data set [1] concerns the target T1, human glucagon receptor (GCGR) (Homo sapiens, UniProt P47871).
T1 construct: expressed in transfected cells
Put plainly: Agonist activity assay for GCGR (cAMP HTRF). It counts as cell-based. Particulars: normalized by the activity of the native glucagon. The method, then:
The activation of GCGR by related compounds will stimulate the formation of cyclic adenosine monophosphate (cAMP) in cells. Thus, the receptor activity can be monitored by cAMP production in proper cells expressing the receptor. […] The cells were passaged at least once for subsequent tests. Before testing, the cells were trypsinized, centrifuged, washed once, and resuspended in serum-free DMEM/F12 medium. The cell density was adjusted, and the cells were plated in a 96-well plate at a density of 2,500 cells/5 μL/well. […] The mixture was mixed well by moderate vibration, and incubated for 1 hour at room temperature away from light.
Background: Time-resolved FRET reads energy transfer from a long-lived donor to a nearby acceptor.

Data set [2] can be described thus: Maximum solubility in phosphate buffer pH 7.4. It counts as physicochemical. Particulars: phosphate buffer pH 7.4, room temperature.

Converted amounts (≈) assume the structure as drawn. Where a SMILES comes first, the peptide text is derived from it. [ ]: non-standard residue; d: D form. Aib = CC(C)(N)C(=O)O

T1 sequence (P47871 26-477): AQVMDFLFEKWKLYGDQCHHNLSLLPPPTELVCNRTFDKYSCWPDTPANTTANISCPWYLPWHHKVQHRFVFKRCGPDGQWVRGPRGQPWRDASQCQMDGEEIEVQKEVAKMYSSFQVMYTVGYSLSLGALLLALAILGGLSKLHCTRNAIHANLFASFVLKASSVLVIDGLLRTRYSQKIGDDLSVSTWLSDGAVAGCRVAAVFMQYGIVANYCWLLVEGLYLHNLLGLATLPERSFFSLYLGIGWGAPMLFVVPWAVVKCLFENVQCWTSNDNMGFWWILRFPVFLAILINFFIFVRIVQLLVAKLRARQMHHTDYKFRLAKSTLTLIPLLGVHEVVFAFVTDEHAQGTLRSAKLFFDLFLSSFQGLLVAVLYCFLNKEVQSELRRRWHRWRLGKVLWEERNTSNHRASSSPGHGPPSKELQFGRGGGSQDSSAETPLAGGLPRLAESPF

With `CC(C)C[C@H](NC(=O)[C@H](Cc1ccc(O)cc1)NC(=O)[C@H](CCCCN)NC(=O)[C@H](CO)NC(=O)[C@H](Cc1ccc(O)cc1)NC(=O)[C@H](CC(=O)O)NC(=O)[C@H](CO)NC(=O)[C@@H](NC(=O)[C@H](Cc1ccccc1)NC(=O)[C@@H](NC(=O)CNC(=O)[C@H](Cc1c[nH]cn1)NC(=O)[C@H](CO)NC(=O)[C@@H](N)Cc1c[nH]cn1)[C@@H](C)O)[C@@H](C)O)C(=O)N[C@@H](CC(=O)O)C(=O)N[C@@H](CC(C)C)C(=O)NC(C)(C)C(=O)N[C@@H](CCCNC(=N)N)C(=O)N[C@@H](C)C(=O)N[C@@H](CCC(N)=O)C(=O)N[C@@H](CCC(=O)O)C(=O)N[C@@H](Cc1ccccc1)C(=O)N[C@H](C(=O)N[C@@H](CCC(=O)O)C(=O)N[C@@H](Cc1c[nH]c2ccccc12)C(=O)N[C@@H](CC(C)C)C(=O)N[C@@H](CCC(=O)O)C(=O)N[C@@H](CO)C(=O)N[C@H](C(=O)O)[C@@H](C)O)C(C)C` [Compound 47] (H-HSHGTFTSDYSKYLDL[Aib]RAQEFVEWLEST-OH), in data set [1], the Relative activity amounted to 253%. For the same compound, the solubility at 5 min in data set [2] is more than 2070 µg/mL.

The compound `CC(C)C[C@H](NC(=O)[C@H](Cc1ccc(O)cc1)NC(=O)[C@H](CCCCN)NC(=O)[C@H](CO)NC(=O)[C@H](Cc1ccc(O)cc1)NC(=O)[C@H](CC(=O)O)NC(=O)[C@H](CO)NC(=O)[C@@H](NC(=O)[C@H](Cc1ccccc1)NC(=O)[C@@H](NC(=O)CNC(=O)[C@H](CCC(N)=O)NC(=O)[C@H](CO)NC(=O)[C@@H](N)Cc1c[nH]cn1)[C@@H](C)O)[C@@H](C)O)C(=O)N[C@@H](CCC(=O)O)C(=O)N[C@@H](CO)C(=O)NC(C)(C)C(=O)N[C@@H](CCCNC(=N)N)C(=O)N[C@@H](C)C(=O)N[C@@H](CCC(=O)O)C(=O)N[C@@H](CC(=O)O)C(=O)N[C@@H](Cc1ccccc1)C(=O)N[C@H](C(=O)N[C@@H](CCCNC(=N)N)C(=O)N[C@@H](Cc1c[nH]c2ccccc12)C(=O)N[C@@H](CC(C)C)C(=O)N[C@@H](CCC(=O)O)C(=O)N[C@@H](CO)C(=O)N[C@H](C(=O)O)[C@@H](C)O)C(C)C` [Compound 38] (H-HSQGTFTSDYSKYLES[Aib]RAEDFVRWLEST-OH) gave a solubility in data set [2] of more than 16400 µg/mL.

With `CC(C)C[C@H](NC(=O)[C@H](Cc1ccc(O)cc1)NC(=O)[C@H](CCCCN)NC(=O)[C@H](CO)NC(=O)[C@H](Cc1ccc(O)cc1)NC(=O)[C@H](CC(=O)O)NC(=O)[C@H](CO)NC(=O)[C@@H](NC(=O)[C@H](Cc1ccccc1)NC(=O)[C@@H](NC(=O)CNC(=O)[C@H](Cc1c[nH]cn1)NC(=O)[C@H](CO)NC(=O)[C@@H](N)Cc1c[nH]cn1)[C@@H](C)O)[C@@H](C)O)C(=O)N[C@@H](CC(=O)O)C(=O)N[C@@H](CC(C)C)C(=O)NC(C)(C)C(=O)N[C@@H](CCCNC(=N)N)C(=O)N[C@@H](C)C(=O)N[C@@H](CCC(N)=O)C(=O)N[C@@H](CCC(=O)O)C(=O)N[C@@H](Cc1ccccc1)C(=O)N[C@H](C(=O)N[C@@H](CCC(N)=O)C(=O)N[C@@H](Cc1c[nH]c2ccccc12)C(=O)N[C@@H](CC(C)C)C(=O)N[C@@H](CCC(=O)O)C(=O)N[C@@H](CO)C(=O)N[C@H](C(=O)O)[C@@H](C)O)C(C)C` [Compound 43] (H-HSHGTFTSDYSKYLDL[Aib]RAQEFVQWLEST-OH), the Relative activity in data set [1] worked out at 371%. Further, the concentration in solution in data set [2] (solubility at 5 min) was 1620 µg/mL (≈ 472 µM).
